# Measurements taken from patent US20240238244A1, “USE OF A COMPOUND SUCH AS […] TREATING A VIRAL PULMONARY DISEASE” (4LIVING BIOTECH, priority 2021, published 2024).
# Values joined by “and” are separate entries in the source; they are usually repeats but may differ in a detail not shown here. Equal values may be shown once. Read-outs that look alike come from different tables or passages of the source.
# How the values were obtained:
# [1] = system: H3N2 influenza A virus strain Scotland/20/74; details: day 7; for Mean necrosis/cell death score: Influenza group 0.90; for Mean edema/HM/congestion score: Influenza group 1.50; for Mean inflammation score: Influenza group 1.90; for Mean total score according to Meyerholz and Beck: Influenza group 4.50
# [2] = system: H3N2 influenza A virus strain Scotland/20/74; details: day 7; for Mean IL-17 levels in lung homogenates: Influenza group 575.58, non-infected 874.47; for Mean IL-1β levels in lung homogenates: Influenza group 3502.64, non-infected 1347.22; for Mean TNFα levels in lung homogenates: Influenza group 11038.49, non-infected 11879.58; for Mean IL-6 levels in lung homogenates: Influenza group 15055.10, non-infected 2412.49; for Mean C5a levels in lung homogenates: Influenza group 3758066.67, non-infected 2540416.67; for Mean CRP levels in lung homogenates: Influenza group 9243070.24, non-infected 2718616.67
# [3] = system: H3N2 influenza A virus strain Scotland/20/74
# [4] = system: H3N2 influenza A virus strain Scotland/20/74; details: day 7; for Percentage of fibrocytes recruited in the lung: Infected group 28.05±26.78%, Not-infected 7.58±1.70%
# Protocol: Treatments were administered twice a day subcutaneously (SC) in mice from day 1 to day 6 by grasping the skin along back of mice. The needle was inserted at base of skin old between thumb and finger and solution was injected. Plerixafor® was administered (100 μl) twice a day to group “Infected+Plerixafor 1 mg/kg”, “Infected+Plerixafor 3 mg/kg”, and “Infected+Plerixafor 10 mg/kg”. Thus, mice received daily 1, 3 and 10 mg/kg for 7 days for group “Infected+Plerixafor 1 mg/kg”, “Infected+Plerixafor 3 mg/kg”, and “Infected+Plerixafor 10 mg/kg” respectively. Group “Infected” received water twice a day (100 μl).
# The percentage of general fibrocytes was evaluated in lung by flow cytometry analysis. The proportion of fibrocytes was assessed using a combination of Antibody/Fluorochrome, i.e. CD45+, FSP1+, and their viability was assessed using the Live Dead cell viability assay. For each tested condition, a general gating strategy was followed to identify the different sub-populations. First, cells of interest were selected according to granulometry and size events via the FSC-H (Forward Scatter Height) and SSC-H (Side Scatter Height) parameters. Then, on the selected cells, fibrocytes were identified as CD45+/FSP1+ cells.
# The percentage of fibrocytes recruited in the lung was evaluated at day 7 for 4 mice per group (3 for non-infected group).
# [5] = Plerixafor 2.5 mg/kg daily SC (group 3M)
# [6] = Plerixafor 5 mg/kg daily SC (group 4M)
# [7] = Plerixafor 10 mg/kg daily SC (group 5M)
# [8] = Plerixafor 20 mg/kg daily SC (group 6M)
# [9] = Plerixafor 20 mg/kg daily SC (group 6M), p<0.01
# [10] = Plerixafor at 2, 5, 5, 10 and 20 mg/kg
# [11] = Plerixafor at 2, 5, 5 and 10 mg/kg
smiles,measurement,setting,value
"c1cc(CN2CCCNCCNCCCNCC2)ccc1CN1CCCNCCNCCCNCC1 [Plerixafor, 1,1′-[1,4-phenylene-bis(methylene)]-bis-1,4,8,11-tetraazacyclotetradecane]",Mean necrosis/cell death score,[1]; [5],0.50
same,Mean edema/HM/congestion score,[1]; [5],0.70
same,Mean inflammation score,[1]; [5],1.40
same,Mean total score according to Meyerholz and Beck,[1]; [5],2.70
same,Mean necrosis/cell death score,[1]; [6],0.80
same,Mean edema/HM/congestion score,[1]; [6],0.90
same,Mean inflammation score,[1]; [6],2.00
same,Mean total score according to Meyerholz and Beck,[1]; [6],4.00
same,Mean necrosis/cell death score,[1]; [7],0.50
same,Mean edema/HM/congestion score,[1]; [7],0.50
same,Mean inflammation score,[1]; [7],1.70
same,Mean total score according to Meyerholz and Beck,[1]; [7],2.90
same,Mean necrosis/cell death score,[1]; [8],0.40±0.70 and 0.40
same,Mean edema/HM/congestion score,[1]; [8],0.60±0.52 and 0.60
same,Mean inflammation score,[1]; [8],1.60±1.17 and 1.60
same,Mean total score according to Meyerholz and Beck,[1]; [8],2.80±2.35 and 2.80
same,"Severity, distribution and incidence of pulmonary lesions in comparison to influenza treated mice","[1]; groups 3M, 4M, 5M and 6M (Plerixafor 2.5, 5, 10, 20 mg/kg daily SC)",slightly lower
same,Mean IL-17 levels in lung homogenates,[2]; [5],748.08 pg/ml/g of tissue
same,Mean IL-1β levels in lung homogenates,[2]; [5],4317.27 pg/ml/g of tissue
same,Mean TNFα levels in lung homogenates,[2]; [5],8983.01 pg/ml/g of tissue
same,Mean IL-6 levels in lung homogenates,[2]; [5],11166.93 pg/ml/g of tissue
same,Mean C5a levels in lung homogenates,[2]; [5],3699919.44 pg/ml/g of tissue
same,Mean CRP levels in lung homogenates,[2]; [5],9241738.89 pg/ml/g of tissue
same,Mean IL-17 levels in lung homogenates,[2]; [6],663.57 pg/ml/g of tissue
same,Mean IL-1β levels in lung homogenates,[2]; [6],2534.11 pg/ml/g of tissue
same,Mean TNFα levels in lung homogenates,[2]; [6],9307.38 pg/ml/g of tissue
same,Mean IL-6 levels in lung homogenates,[2]; [6],11059.46 pg/ml/g of tissue
same,Mean C5a levels in lung homogenates,[2]; [6],3440259.52 pg/ml/g of tissue
same,Mean CRP levels in lung homogenates,[2]; [6],7792352.38 pg/ml/g of tissue
same,Mean IL-17 levels in lung homogenates,[2]; [7],799.98 pg/ml/g of tissue
same,Mean IL-1β levels in lung homogenates,[2]; [7],3319.66 pg/ml/g of tissue
same,Mean TNFα levels in lung homogenates,[2]; [7],11138.01 pg/ml/g of tissue
same,Mean IL-6 levels in lung homogenates,[2]; [7],13927.98 pg/ml/g of tissue
same,Mean C5a levels in lung homogenates,[2]; [7],3519038.68 pg/ml/g of tissue
same,Mean CRP levels in lung homogenates,[2]; [7],8406400.43 pg/ml/g of tissue
same,Mean IL-17 levels in lung homogenates,[2]; [8],603.22 pg/ml/g of tissue
same,Mean IL-1β levels in lung homogenates,[2]; [8],2805.78 pg/ml/g of tissue
same,Mean TNFα levels in lung homogenates,[2]; [8],6224.51±3014.54 pg/ml/g of tissue and 6224.51 pg/ml/g of tissue
same,Mean IL-6 levels in lung homogenates,"[2]; Plerixafor 20 mg/kg daily SC (group 6M), p<0.05",5408.82±3539.57 pg/ml/g of tissue and 5408.82 * pg/ml/g of tissue
same,Mean C5a levels in lung homogenates,[2]; [9],2220172.76±972810.94 pg/ml/g of tissue and 2220172.76 pg/ml/g of tissue
same,Mean CRP levels in lung homogenates,[2]; [9],4488307.08±2059120.87 pg/ml/g of tissue and 4488307.08 pg/ml/g of tissue
same,Modulation of IL-1β levels,[2]; [10],did not significantly modulate
same,Modulation of IL-17 levels,[2]; [10],did not significantly modulate
same,Modulation of C5a levels,[2]; [11],did not significantly modulate
same,Modulation of IL-6 levels in comparison to Influenza group,[2]; [11],did not significantly modulate
same,Modulation of TNFα levels,[2]; [11],did not significantly modulate
same,Modulation of CRP levels,"[2]; Plerixafor at 2.5, 5 and 10 mg/kg",did not significantly modulate
same,BW (body weight) 7 days after the infection,"[3]; Plerixafor 20 mg/kg daily (10 mg/kg SC twice a day, day 1 to 6), day 7, influenza group 94±5%, non-infected 103±4%, p<0.05",97±5%
same,Modulation of BW loss,"[3]; Plerixafor at doses inferior or equal to 10 mg/kg daily, SC twice a day, day 1 to 6",did not modulate BW loss
same,Percentage of fibrocytes recruited in the lung,[4]; Infected+Plerixafor 1 mg/kg daily SC,19.77±19.93%
same,Percentage of fibrocytes recruited in the lung,[4]; Infected+Plerixafor 3 mg/kg daily SC,12.90±5.44%
same,Percentage of fibrocytes recruited in the lung,[4]; Infected+Plerixafor 10 mg/kg daily SC,23.86±18.39%
same,Effect on the recruitment of fibrocytes in the lung,"[4]; whatever the Plerixafor dosage tested (1, 3, 10 mg/kg daily), no dose-effect",does not affect significantly
